Key:
LdcCA = molecular target: T1, LdcCA (Leishmania infantum, UniProt A4HSV2); experiment: stopped-flow CO2 hydrase assay; format: biochemical; conditions: 20 mM TRIS pH 8.3, 20 mM Na2SO4, CO2 1.7-17 mM, 15 min preincubation at room temperature
T1 construct: gene LINJ_06_0630; organism given as Leishmania donovani chagasi
T1 sequence (A4HSV2 1-306): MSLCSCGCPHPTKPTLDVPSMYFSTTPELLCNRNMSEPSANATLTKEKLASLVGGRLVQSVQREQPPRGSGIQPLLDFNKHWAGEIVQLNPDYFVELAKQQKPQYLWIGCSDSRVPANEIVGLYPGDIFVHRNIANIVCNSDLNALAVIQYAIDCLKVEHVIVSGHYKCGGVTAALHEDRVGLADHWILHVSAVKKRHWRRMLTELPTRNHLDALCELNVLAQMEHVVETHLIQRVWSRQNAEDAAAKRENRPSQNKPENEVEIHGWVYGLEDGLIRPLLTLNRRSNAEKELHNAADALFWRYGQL

TcCA = molecular target: T2, TcCA (Trypanosoma cruzi, UniProt Q4CVY4); experiment: stopped-flow CO2 hydrase assay; format: biochemical; conditions: 20 mM Hepes pH 7.5, 20 mM Na2SO4, CO2 1.7-17 mM, 15 min preincubation at room temperature
T2 construct: gene Tc00.1047053509597.20
T2 sequence (Q4CVY4 39-638): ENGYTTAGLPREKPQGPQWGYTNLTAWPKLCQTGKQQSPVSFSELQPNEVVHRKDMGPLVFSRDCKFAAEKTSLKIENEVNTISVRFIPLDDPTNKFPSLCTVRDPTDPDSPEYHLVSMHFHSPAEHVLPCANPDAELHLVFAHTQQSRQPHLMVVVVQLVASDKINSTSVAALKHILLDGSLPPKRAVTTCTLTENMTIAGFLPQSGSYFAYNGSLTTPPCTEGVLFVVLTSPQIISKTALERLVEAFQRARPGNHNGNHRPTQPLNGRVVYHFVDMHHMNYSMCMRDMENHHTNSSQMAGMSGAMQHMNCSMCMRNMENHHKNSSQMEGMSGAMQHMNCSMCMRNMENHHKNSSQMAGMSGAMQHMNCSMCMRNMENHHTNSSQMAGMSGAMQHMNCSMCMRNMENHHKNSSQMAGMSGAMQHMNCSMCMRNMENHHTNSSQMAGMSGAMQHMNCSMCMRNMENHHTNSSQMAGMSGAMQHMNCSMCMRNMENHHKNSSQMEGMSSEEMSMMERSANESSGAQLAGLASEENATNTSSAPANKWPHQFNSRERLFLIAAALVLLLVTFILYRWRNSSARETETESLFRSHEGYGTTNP

Question: OB1OCc2ccc(NC(=S)Nc3ccc(F)cc3)cc21 [compound 20, 20] was tested. Which Ki (LdcCA) did it give?
Answer: 0.66 µM

Question: And the Ki (TcCA)?
Answer: 19.7 µM

Question: With Cc1ccc(NC(=S)Nc2ccc3c(c2)B(O)OC3)cc1 [compound 15, 15] as the compound, how does the Ki (LdcCA) read?
Answer: 0.67 µM

Question: What about the Ki (TcCA) of the same compound?
Answer: 32.5 µM

Question: With OB1OCc2ccc(NC(=S)Nc3ccc4ccccc4c3)cc21 [compound 16, 16] as the compound, how does the Ki (LdcCA) read?
Answer: 3.06 µM

Question: And the Ki (TcCA)?
Answer: 58.8 µM

Question: OB1OCc2ccc(NC(=S)Nc3ccc(C(F)(F)F)cc3)cc21 [compound 22, 22] was tested. Which Ki (LdcCA) did it give?
Answer: 0.85 µM

Question: And the Ki (TcCA)?
Answer: 16.6 µM

Question: What does the source list for Cc1cc(Cl)cc(CNC(=O)Nc2ccc3c(c2)B(O)OC3)c1 [compound 5, 5]?
Answer: Ki (LdcCA): 4.3 µM; Ki (TcCA): 87.6 µM

Question: How did the Ki (LdcCA) turn out when O=C(Nc1ccc(C(F)(F)F)cc1)Nc1ccc2c(c1)B(O)OC2 [compound 10, 10] was run?
Answer: 2.59 µM

Question: What about the Ki (TcCA) of the same compound?
Answer: 60.7 µM

Question: What does the source list for COc1ccc(NC(=S)Nc2ccc3c(c2)B(O)OC3)cc1 [compound 17, 17]?
Answer: Ki (LdcCA): 0.59 µM; Ki (TcCA): 12.6 µM

Question: With COc1ccc(C)cc1NC(=O)Nc1ccc2c(c1)B(O)OC2 [compound 12, 12] as the compound, how does the Ki (LdcCA) read?
Answer: 0.67 µM

Question: And the Ki (TcCA)?
Answer: 38.6 µM

Question: Which results are given for O=C(Nc1ccc(F)cc1)Nc1ccc2c(c1)B(O)OC2 [compound 9, 9]?
Answer: Ki (LdcCA): 0.78 µM; Ki (TcCA): 24 µM

Question: With O=C(NCc1ccccc1)Nc1ccc2c(c1)B(O)OC2 [compound 4, 4] as the compound, how does the Ki (LdcCA) read?
Answer: 2.04 µM

Question: What about the Ki (TcCA) of the same compound?
Answer: 75.1 µM

Question: With O=C(Nc1ccccc1)Nc1ccc2c(c1)B(O)OC2 [compound 6, phenylureido benzoxaborole 6] as the compound, how does the Ki (LdcCA) read?
Answer: 0.74 µM

Question: What about the Ki (TcCA) of the same compound?
Answer: 32.3 µM

Question: Which results are given for O=[N+]([O-])c1ccc(NC(=S)Nc2ccc3c(c2)B(O)OC3)cc1 [compound 18, 18]?
Answer: Ki (LdcCA): 0.91 µM; Ki (TcCA): 46.8 µM

Question: With O=C(NCc1ccco1)Nc1ccc2c(c1)B(O)OC2 [compound 8, 8] as the compound, how does the Ki (LdcCA) read?
Answer: 3.54 µM

Question: What about the Ki (TcCA) of the same compound?
Answer: 67.6 µM

Question: OB1OCc2ccc(NC(=S)Nc3ccccc3)cc21 [compound 23, phenylthioureido benzoxaborole 23] was tested. Which Ki (LdcCA) did it give?
Answer: 0.65 µM

Question: What about the Ki (TcCA) of the same compound?
Answer: 23.4 µM

Question: What does the source list for O=C(Nc1ccc2c(c1)B(O)OC2)Nc1c(Cl)cc(Cl)cc1Cl [compound 11, 11]?
Answer: Ki (LdcCA): 3.85 µM; Ki (TcCA): 69.5 µM

Question: How did the Ki (LdcCA) turn out when O=[N+]([O-])c1ccc2c(c1)B(O)OC2 [compound 2, 6-nitro benzoxaborole 2] was run?
Answer: 4.01 µM

Question: What about the Ki (TcCA) of the same compound?
Answer: > 100 µM

Question: What does the source list for OB1OCc2ccc(NC(=S)NCCc3ccccc3)cc21 [compound 14, 14]?
Answer: Ki (LdcCA): 3.2 µM; Ki (TcCA): 72.8 µM

Question: What does the source list for O=C(Nc1ccc(Cl)cc1)Nc1ccc2c(c1)B(O)OC2 [compound 7, 7]?
Answer: Ki (LdcCA): 0.62 µM; Ki (TcCA): 37.8 µM

Question: What does the source list for Nc1ccc2c(c1)B(O)OC2 [compound 3, 6-amino benzoxaborole 3]?
Answer: Ki (LdcCA): 2.37 µM; Ki (TcCA): > 100 µM

Question: What does the source list for OB1OCc2ccccc21 [compound 1, benzoxaborole 1]?
Answer: Ki (LdcCA): 3.79 µM; Ki (TcCA): > 100 µM

Question: What does the source list for OB1OCc2ccc(NC(=S)NCc3ccco3)cc21 [compound 21, 21]?
Answer: Ki (LdcCA): 4.36 µM; Ki (TcCA): 42.1 µM

Question: Which Ki (LdcCA) does the source give for CC(=O)c1ccc(NC(=O)Nc2ccc3c(c2)B(O)OC3)cc1 [compound 13, 13] here?
Answer: 0.48 µM

Question: What about the Ki (TcCA) of the same compound?
Answer: 33.6 µM

Question: Which Ki (LdcCA) does the source give for OB1OCc2ccc(NC(=S)NCc3ccccc3)cc21 [compound 19, 19] here?
Answer: 4.37 µM

Question: What about the Ki (TcCA) of the same compound?
Answer: 59.6 µM

Question: OB1OCc2cc(F)ccc21 [Tavaborole, reference compound] was tested. Which Ki (LdcCA) did it give?
Answer: 2.54 µM

Question: What about the Ki (TcCA) of the same compound?
Answer: 60.5 µM

— article PMC6009872, “Carbonic anhydrases from Trypanosoma cruzi and Leishmania donovani chagasi are inhibited by benzoxaboroles” (Journal of Enzyme Inhibition and Medicinal Chemistry, 2017)
